According to US8063071B2 (GlaxoSmithKline, LLC, priority 2007, dated 2011):
Where a name gives a salt, the structure may show the parent alone.

How the values were obtained:
[1] = tested on: human monocyte stimulated cytokine production (TNF-α); assay: Monocyte assay (LPS-stimulated TNF-α production); assay type: cell-based; details: for IC50: 24 h, 200 ng/mL LPS, TNF-α by ELISA; for inhibition at 0.3 µM: read-out: inhibition at 300 nM in the monocyte assay
Summary of the method: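 TNF-α release was measured by ELISA after 24 hrs at 37 C. Cells were stimulated with 200 ng/mL E. coli LPS, with compound added 30 minutes beforehand (0.1% DMSO vehicle). Cells were Ficoll/MACS-isolated CD14+ human monocytes adhered at 1×10^6 cells/mL, and viability was checked by trypan blue.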

[2] = molecular target: T1, Recombinant human IKKβ (residues 1-737) (Homo sapiens, UniProt O14920); assay: IKK2 assay (TR-FRET); assay type: biochemical; details: ATP 1 μM final, read-out: pIC50 against IKK2 (converted)
T1 construct: Recombinant human IKKβ (residues 1-737); GST (C); made in house
T1 sequence (O14920 1-737): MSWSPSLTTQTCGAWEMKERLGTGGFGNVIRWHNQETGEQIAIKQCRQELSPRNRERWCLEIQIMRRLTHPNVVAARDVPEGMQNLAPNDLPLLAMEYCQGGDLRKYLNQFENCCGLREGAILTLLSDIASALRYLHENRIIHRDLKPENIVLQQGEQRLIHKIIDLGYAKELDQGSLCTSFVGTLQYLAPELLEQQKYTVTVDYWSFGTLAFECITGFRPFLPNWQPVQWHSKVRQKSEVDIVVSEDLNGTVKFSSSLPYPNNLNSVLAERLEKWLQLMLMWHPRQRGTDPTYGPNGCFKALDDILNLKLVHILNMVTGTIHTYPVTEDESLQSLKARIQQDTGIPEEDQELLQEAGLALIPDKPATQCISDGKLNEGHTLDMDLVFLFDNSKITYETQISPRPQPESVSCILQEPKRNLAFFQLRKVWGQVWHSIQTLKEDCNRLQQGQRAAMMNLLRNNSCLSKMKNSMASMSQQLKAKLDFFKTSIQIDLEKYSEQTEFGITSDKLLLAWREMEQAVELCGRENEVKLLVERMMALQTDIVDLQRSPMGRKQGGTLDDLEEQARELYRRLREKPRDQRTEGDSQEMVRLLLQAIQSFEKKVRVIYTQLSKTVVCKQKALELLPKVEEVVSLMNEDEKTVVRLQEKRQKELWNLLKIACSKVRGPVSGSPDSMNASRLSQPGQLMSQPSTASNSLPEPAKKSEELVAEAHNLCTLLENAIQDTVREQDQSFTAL
Summary of the method: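 TR-FRET readout (665 nm over 620 nm Eu reference) of GST-IB Ser32/36 phosphorylation after 60 min detection. Reaction: 1 μM ATP, 25 nM substrate, 0.5-5 nM GST-fused IKKβ 1-737 from baculovirus, pH 7.4 HEPES buffer, 1.7% DMSO, 15 min room temperature, EDTA-terminated.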

Row | Structure (SMILES) | IC50 [1] [nM] | IC50 [2] [µM] | inhibition at 0.3 µM [1] [%]
1 | CCS(=O)(=O)N1CCC(c2c[nH]c3c(C(N)=O)cc(-c4cccc(CN[C@H](C)C(C)C)c4)cc23)CC1 [Example 162, 5-[3-({[(1R)-1,2-dimethylpropyl]amino}methyl)phenyl]-3-[1-(ethylsulfonyl)-4-piperidinyl]-1H-indole-7-carboxamide trifluoroacetate] | ≤ 1500 | ≤ 10 | 
2 | CCS(=O)(=O)N1CCC(c2c[nH]c3c(C(N)=O)cc(-c4cccc(N)n4)cc23)CC1 [Example 163, 5-(6-amino-2-pyridinyl)-3-[1-(ethylsulfonyl)-4-piperidinyl]-1H-indole-7-carboxamide trifluoroacetate] | ≤ 1500 | ≤ 10 | 
3 | CCS(=O)(=O)N1CCC(c2c[nH]c3c(C(N)=O)cc(-c4ccc(N(C)C)cc4)cc23)CC1 [Example 165, 5-[4-(dimethylamino)phenyl]-3-[1-(ethylsulfonyl)-4-piperidinyl]-1H-indole-7-carboxamide] | > 1000 | ≤ 10 | 
4 | CCS(=O)(=O)N1CCC(c2c[nH]c3c(C(N)=O)cc(-c4cccc(N)c4)cc23)CC1 [Example 166, 5-(3-aminophenyl)-3-[1-(ethylsulfonyl)-4-piperidinyl]-1H-indole-7-carboxamide] | ≤ 1500 | ≤ 10 | 
5 | CCS(=O)(=O)N1CCC(c2c[nH]c3c(C(N)=O)cc(-c4ccc(CN5CCCC5C)s4)cc23)CC1 (centres unmarked) [Example 167, 3-[1-(ethylsulfonyl)-4-piperidinyl]-5-{5-[(2-methyl-1-pyrrolidinyl)methyl]-2-thienyl}-1H-indole-7-carboxamide] | ≤ 1500 | ≤ 10 | 
6 | CCNCc1ccc(-c2cc(C(N)=O)c3[nH]cc(C4CCN(S(=O)(=O)CC)CC4)c3c2)s1 [Example 168, 5-{5-[(ethylamino)methyl]-2-thienyl}-3-[1-(ethylsulfonyl)-4-piperidinyl]-1H-indole-7-carboxamide] | ≤ 1500 | ≤ 10 | 
7 | CCS(=O)(=O)N1CCC(c2c[nH]c3c(C(N)=O)cc(-c4ccc(CNC(C)C)s4)cc23)CC1 [Example 169, 3-[1-(ethylsulfonyl)-4-piperidinyl]-5-(5-{[(1-methylethyl)amino]methyl}-2-thienyl)-1H-indole-7-carboxamide] | ≤ 1500 | ≤ 10 | 
8 | CCS(=O)(=O)N1CCC(c2c[nH]c3c(C(N)=O)cc(-c4ccc(CNC5CC5)s4)cc23)CC1 [Example 170, 5-{5-[(cyclopropylamino)methyl]-2-thienyl}-3-[1-(ethylsulfonyl)-4-piperidinyl]-1H-indole-7-carboxamide] | ≤ 1500 | ≤ 10 | 
9 | CCS(=O)(=O)N1CCC(c2c[nH]c3c(C(N)=O)cc(-c4ccc(CNCC(C)(C)C)s4)cc23)CC1 [Example 171, 5-(5-{[(2,2-dimethylpropyl)amino]methyl}-2-thienyl)-3-[1-(ethylsulfonyl)-4-piperidinyl]-1H-indole-7-carboxamide] | ≤ 1500 | ≤ 10 | 
10 | CCS(=O)(=O)N1CCC(c2c[nH]c3c(C(N)=O)cc(-c4ccc(CNCC5CC5)s4)cc23)CC1 [Example 172, 5-(5-{[(cyclopropylmethyl)amino]methyl}-2-thienyl)-3-[1-(ethylsulfonyl)-4-piperidinyl]-1H-indole-7-carboxamide] | ≤ 1500 | ≤ 10 | 
11 | CCS(=O)(=O)N1CCC(c2c[nH]c3c(C(N)=O)cc(-c4cncc(CNCCOC)c4)cc23)CC1 [Example 174, 3-[1-(ethylsulfonyl)-4-piperidinyl]-5-[5-({[2-(methyloxy)ethyl]amino}methyl)-3-pyridinyl]-1H-indole-7-carboxamide] |  | ≤ 10 | 0 to 60
12 | CCS(=O)(=O)N1CCC(c2c[nH]c3c(C(N)=O)cc(-c4cncc(CNCCCOC)c4)cc23)CC1 [Example 175, 3-[1-(ethylsulfonyl)-4-piperidinyl]-5-[5-({[3-(methyloxy)propyl]amino}methyl)-3-pyridinyl]-1H-indole-7-carboxamide] |  | ≤ 10 | 0 to 60
13 | CCS(=O)(=O)N1CCC(c2c[nH]c3c(C(N)=O)cc(-c4cncc(CN5CCOCC5)c4)cc23)CC1 [Example 176, 3-[1-(ethylsulfonyl)-4-piperidinyl]-5-[5-(4-morpholinylmethyl)-3-pyridinyl]-1H-indole-7-carboxamide] |  | ≤ 10 | 0 to 60
14 | CCNCc1cncc(-c2cc(C(N)=O)c3[nH]cc(C4CCN(S(=O)(=O)CC)CC4)c3c2)c1 [Example 177, 5-{5-[(ethylamino)methyl]-3-pyridinyl}-3-[1-(ethylsulfonyl)-4-piperidinyl]-1H-indole-7-carboxamide] |  | ≤ 10 | 0 to 60
15 | CCS(=O)(=O)N1CCC(c2c[nH]c3c(C(N)=O)cc(-c4cncc(CN(C)C)c4)cc23)CC1 [Example 178, 5-{5-[(dimethylamino)methyl]-3-pyridinyl}-3-[1-(ethylsulfonyl)-4-piperidinyl]-1H-indole-7-carboxamide] |  | ≤ 10 | 0 to 60
16 | CCS(=O)(=O)N1CCC(c2c[nH]c3c(C(N)=O)cc(-c4cncc(CN5CCCC5C)c4)cc23)CC1 (centres unmarked) [Example 179, 3-[1-(ethylsulfonyl)-4-piperidinyl]-5-{5-[(2-methyl-1-pyrrolidinyl)methyl]-3-pyridinyl}-1H-indole-7-carboxamide] |  | ≤ 10 | 0 to 60
17 | CCS(=O)(=O)N1CCC(c2c[nH]c3c(C(N)=O)cc(-c4cncc(CNCC(C)C)c4)cc23)CC1 [Example 180, 3-[1-(ethylsulfonyl)-4-piperidinyl]-5-(5-{[(2-methylpropyl)amino]methyl}-3-pyridinyl)-1H-indole-7-carboxamide] |  | ≤ 10 | 0 to 60
18 | CCS(=O)(=O)N1CCC(c2c[nH]c3c(C(N)=O)cc(-c4cncc(CNCC(C)(C)C)c4)cc23)CC1 [Example 181, 5-(5-{[(2,2-dimethylpropyl)amino]methyl}-3-pyridinyl)-3-[1-(ethylsulfonyl)-4-piperidinyl]-1H-indole-7-carboxamide] |  | ≤ 10 | 0 to 60
19 | CCC(C)CNCc1ccc(-c2cc(C(N)=O)c3[nH]cc(C4CCN(S(=O)(=O)CC)CC4)c3c2)s1 (centres unmarked) [Example 182, 3-[1-(ethylsulfonyl)-4-piperidinyl]-5-(5-{[(2-methylbutyl)amino]methyl}-2-thienyl)-1H-indole-7-carboxamide] | ≤ 1500 | ≤ 10 | 
20 | CCCCCNCc1ccc(-c2cc(C(N)=O)c3[nH]cc(C4CCN(S(=O)(=O)CC)CC4)c3c2)s1 [Example 184, 3-[1-(ethylsulfonyl)-4-piperidinyl]-5-{5-[(pentylamino)methyl]-2-thienyl}-1H-indole-7-carboxamide] |  | ≤ 10 | 0 to 60
21 | CC[C@H](C)CNCc1ccc(-c2cc(C(N)=O)c3[nH]cc(C4CCN(S(=O)(=O)CC)CC4)c3c2)s1 [Example 185, 3-[1-(ethylsulfonyl)-4-piperidinyl]-5-[5-({[(2S)-2-methylbutyl]amino}methyl)-2-thienyl]-1H-indole-7-carboxamide] |  | ≤ 10 | 0 to 60
22 | CCCC(C)NCc1ccc(-c2cc(C(N)=O)c3[nH]cc(C4CCN(S(=O)(=O)CC)CC4)c3c2)s1 (centres unmarked) [Example 186, 3-[1-(ethylsulfonyl)-4-piperidinyl]-5-(5-{[(1-methylbutyl)amino]methyl}-2-thienyl)-1H-indole-7-carboxamide] |  | ≤ 10 | 0 to 60
23 | CCCCNCc1ccc(-c2cc(C(N)=O)c3[nH]cc(C4CCN(S(=O)(=O)CC)CC4)c3c2)s1 [Example 187, 5-{5-[(butylamino)methyl]-2-thienyl}-3-[1-(ethylsulfonyl)-4-piperidinyl]-1H-indole-7-carboxamide] |  | ≤ 10 | 0 to 60
24 | CCS(=O)(=O)N1CCC(c2c[nH]c3c(C(N)=O)cc(-c4ccc(CNCCOC)s4)cc23)CC1 [Example 188, 3-[1-(ethylsulfonyl)-4-piperidinyl]-5-[5-({[2-(methyloxy)ethyl]amino}methyl)-2-thienyl]-1H-indole-7-carboxamide] |  | ≤ 10 | 0 to 60
25 | CCS(=O)(=O)N1CCC(c2c[nH]c3c(C(N)=O)cc(-c4ccc(CNC5CCCC5)s4)cc23)CC1 [Example 189, 5-{5-[(cyclopentylamino)methyl]-2-thienyl}-3-[1-(ethylsulfonyl)-4-piperidinyl]-1H-indole-7-carboxamide] |  | ≤ 10 | 0 to 60
